Laboratory results reported in patent US8946270B2, “Amido-pyridyl ether compounds and compositions and their use against parasites” (Merial Limited, priority 2011, dated 2015).
Read-outs that look alike come from different tables or passages of the source.

Assays:
Haematobia irritans = test: whole plant or invertebrate; conditions: 5 μg/cm^2; for mortality at 5 µg/cm2: Haematobia irritans, read-out: Contact SP Horn Fly PCT Mortality (%)
Description: (§1) A solution of the test compound was used to treat a filter paper contained within a Petri dish and the filter paper was allowed to evaporate to dryness. A small piece of absorbent cotton moistened with 10% sucrose and ten adult flies (Haematobia irritans or Stomoxys calcitrans) were added to each dish. Dishes were capped and held at room temperature. Assessments were performed at 4 and 24 hours after infestation in comparison with untreated controls.

Stomoxys calcitrans = test: whole plant or invertebrate; conditions: 5 μg/cm^2; for mortality at 5 µg/cm2: Stomoxys calcitrans, read-out: Contact SP Stable Fly PCT Mortality
Description: as §1

[1] = test system: Rhipicephalus sanguineus (Brown Dog Tick); test: whole plant or invertebrate; conditions: for mortality at 200 ppm: Rhipicephalus sanguineus, read-out: Contact SP Rhicicep PCT Mortality (%); for Contact SP Rhicicep PCT Mortality (%): 200 ppm
Excerpt: A solution of the test compound was used to coat the inner wall of glass vials and to treat two filter papers. Once dried, one filter paper was placed in the cap of the vial and the other in the bottom of the vial. Each treated vial was infested with 10 adult Rhipicephalus sanguineus (Brown Dog Tick). […]

[2] = test system: Haemonchus contortus larvae; test: Activity against H. contortus, larval development L1 to L3 (LDA); conditions: 5 ppm; 4 days
Description: Twenty L1 Haemonchus contortus larvae were added to wells of a microtitre plate containing a nutrient medium and the test compound in DMSO. The microtitre plate was then held at 27° C. where the L1 larvae were allowed to develop. […] Larvae exposed to DMSO and no test compound served as controls

[3] = test system: microfilaria of Dirofilaria immitis; test: Activity against D. immitis microfilaria (Mf); conditions: 5 ppm; 5 days
Description: Four hundred to six hundred microfilaria of Dirofilaria immitis were added to wells of a microtitre plate containing RPMI media and the test compound in DMSO. The microtitre plate was then held at 37° C. in an environment containing 5% CO2. An assessment was conducted at 5 days to determine survival of the microfilaria. Microfilaria exposed to DMSO and no test compound served as controls.

Ctenocephalides felis = test: whole plant or invertebrate; conditions: 72 hr; for mortality at 200 ppm: Ctenocephalides felis, read-out: Assay: Minilnge Organism: C. felis Test Parameter: PCT Mortal; for Assay: Minilnge Organism: C. felis Test Parameter: PCT Mortal: Dose: 200 ppm

## CC(C)CNC(=O)c1ccc(COc2cccc(C(F)(F)F)c2)cn1 [Compound 5]
Haematobia irritans; timepoint 4 hrs
  mortality at 5 µg/cm2: 100%
Haematobia irritans; timepoint 24 hrs
  mortality at 5 µg/cm2: 100%
Stomoxys calcitrans; 4 hrs
  mortality at 5 µg/cm2: 70%
Stomoxys calcitrans; 24 hrs
  mortality at 5 µg/cm2: 90%
[1]; timepoint 4 hrs
  mortality at 200 ppm: 50%
[1]; timepoint 24 hrs
  mortality at 200 ppm: 80%

## CC(C)CNC(=O)c1ccc(CCOc2cccc(OC(F)(F)F)c2)cn1 [Compound 12]
Haematobia irritans; timepoint 4 hrs
  mortality at 5 µg/cm2: 80%
Haematobia irritans; timepoint 24 hrs
  mortality at 5 µg/cm2: 100%
Stomoxys calcitrans; 4 hrs
  mortality at 5 µg/cm2: 50%
Stomoxys calcitrans; 24 hrs
  mortality at 5 µg/cm2: 90%

## CC(C)CNC(=O)c1ccc(CCOc2ccc(OC(F)(F)F)cc2)cn1 [Compound 13]
Haematobia irritans; timepoint 4 hrs
  mortality at 5 µg/cm2: 60%
Haematobia irritans; timepoint 24 hrs
  mortality at 5 µg/cm2: 70%
[2]
  LDA SP H. cont. PCT Mot M: 95%

## O=C(NCC1CCOCC1)c1ccc(CCOc2ccc(OC(F)(F)F)cc2)cn1 [Compound 14]
[3]
  Mf sp D. immitis PCT Motili: 88%
Haematobia irritans; timepoint 4 hrs
  mortality at 5 µg/cm2: 80%
Haematobia irritans; timepoint 24 hrs
  mortality at 5 µg/cm2: 100%
[2]
  LDA SP H. cont. PCT Mot M: 100%

## O=C(NCC1CCOCC1)c1ccc(COc2ccc(OC(F)(F)F)cc2)cn1 [Compound 24]
Haematobia irritans; timepoint 4 hrs
  mortality at 5 µg/cm2: 50%
Haematobia irritans; timepoint 24 hrs
  mortality at 5 µg/cm2: 70%
[1]; timepoint 4 hrs
  mortality at 200 ppm: 0%
[1]; timepoint 24 hrs
  mortality at 200 ppm: 0%
Ctenocephalides felis
  mortality at 200 ppm: 0%

## O=C(NCC1CC1)c1ccc(COc2ccc(OC(F)(F)F)cc2)cn1 [Compound 33]
Haematobia irritans; timepoint 4 hrs
  mortality at 5 µg/cm2: 100%
Haematobia irritans; timepoint 24 hrs
  mortality at 5 µg/cm2: 100%
Stomoxys calcitrans; 4 hrs
  mortality at 5 µg/cm2: 80%
Stomoxys calcitrans; 24 hrs
  mortality at 5 µg/cm2: 80%
[1]; timepoint 4 hrs
  mortality at 200 ppm: 100%
[1]; timepoint 24 hrs
  mortality at 200 ppm: 100%

## COC(CNC(=O)c1ccc(COc2cccc(OC(F)(F)F)c2)cn1)OC [Compound 44]
Haematobia irritans; timepoint 4 hrs
  mortality at 5 µg/cm2: 80%
Haematobia irritans; timepoint 24 hrs
  mortality at 5 µg/cm2: 80%
[1]; timepoint 4 hrs
  mortality at 200 ppm: 100%
[1]; timepoint 24 hrs
  mortality at 200 ppm: 100%

## O=C(NCC1CC1)c1ccc(COc2cccc(OC(F)(F)F)c2)cn1 [Compound 52]
Haematobia irritans; timepoint 4 hrs
  Contact SP Horn Fly PCT Mortality (%): 80%
Haematobia irritans; timepoint 24 hrs
  Contact SP Horn Fly PCT Mortality (%): 80%
Stomoxys calcitrans; 4 hrs
  Contact SP Stable Fly PCT Mortality: 60%
Stomoxys calcitrans; 24 hrs
  Contact SP Stable Fly PCT Mortality: 80%

## CC(C)CNC(=O)c1ccc(COc2cccc(OC(F)(F)F)c2)cn1 [Compound 54]
Haematobia irritans; timepoint 4 hrs
  mortality at 5 µg/cm2: 100%
Haematobia irritans; timepoint 24 hrs
  mortality at 5 µg/cm2: 100%
[1]; timepoint 4 hrs
  mortality at 200 ppm: 0%
[1]; timepoint 24 hrs
  mortality at 200 ppm: 100%

## Cc1cccc(OCc2ccc(C(=O)NCC(C)C)nc2)c1 [Compound 63]
Haematobia irritans; timepoint 4 hrs
  Contact SP Horn Fly PCT Mortality (%): 100%
Haematobia irritans; timepoint 24 hrs
  Contact SP Horn Fly PCT Mortality (%): 100%
Stomoxys calcitrans; 4 hrs
  Contact SP Stable Fly PCT Mortality: 80%
Stomoxys calcitrans; 24 hrs
  Contact SP Stable Fly PCT Mortality: 80%
[1]; timepoint 4 hrs
  Contact SP Rhicicep PCT Mortality (%): 100%
[1]; timepoint 24 hrs
  Contact SP Rhicicep PCT Mortality (%): 100%

## CCc1cccc(OCc2ccc(C(=O)NCC(OC)OC)nc2)c1 [Compound 65]
Stomoxys calcitrans; 4 hrs
  mortality at 5 µg/cm2: 50%
Stomoxys calcitrans; 24 hrs
  mortality at 5 µg/cm2: 60%
[1]; timepoint 4 hrs
  mortality at 200 ppm: 80%
[1]; timepoint 24 hrs
  mortality at 200 ppm: 100%

## C=C(C)CNC(=O)c1ccc(COc2cccc(CC)c2)cn1 [Compound 76]
Haematobia irritans; timepoint 4 hrs
  mortality at 5 µg/cm2: 0%
Haematobia irritans; timepoint 24 hrs
  mortality at 5 µg/cm2: 0%
[1]; timepoint 4 hrs
  mortality at 200 ppm: 80%
[1]; timepoint 24 hrs
  mortality at 200 ppm: 100%

## CCc1cccc(OCc2ccc(C(=O)NCC(C)C)nc2)c1 [Compound 77]
Haematobia irritans; timepoint 4 hrs
  mortality at 5 µg/cm2: 100%
Haematobia irritans; timepoint 24 hrs
  mortality at 5 µg/cm2: 100%
Stomoxys calcitrans; 4 hrs
  mortality at 5 µg/cm2: 60%
Stomoxys calcitrans; 24 hrs
  mortality at 5 µg/cm2: 80%
[1]; timepoint 4 hrs
  mortality at 200 ppm: 100%
[1]; timepoint 24 hrs
  mortality at 200 ppm: 100%

## COC(CNC(=O)c1ccc(COc2cc(F)cc(Br)c2)cn1)OC [Compound 107]
Haematobia irritans; timepoint 4 hrs
  mortality at 5 µg/cm2: 0%
Haematobia irritans; timepoint 24 hrs
  mortality at 5 µg/cm2: 0%
[1]; timepoint 4 hrs
  mortality at 200 ppm: 0%
[1]; timepoint 24 hrs
  mortality at 200 ppm: 70%
Ctenocephalides felis
  mortality at 200 ppm: 90%

## N#CCCNC(=O)c1ccc(COc2cc(F)cc(Br)c2)cn1 [Compound 108]
Haematobia irritans; timepoint 4 hrs
  mortality at 5 µg/cm2: 100%
Haematobia irritans; timepoint 24 hrs
  mortality at 5 µg/cm2: 100%
Stomoxys calcitrans; 4 hrs
  mortality at 5 µg/cm2: 0%
Stomoxys calcitrans; 24 hrs
  mortality at 5 µg/cm2: 0%
[1]; timepoint 4 hrs
  mortality at 200 ppm: 70%
[1]; timepoint 24 hrs
  mortality at 200 ppm: 70%

## O=C(NCC1CC1)c1ccc(COc2cc(F)cc(Br)c2)cn1 [Compound 119]
Haematobia irritans; timepoint 4 hrs
  Contact SP Horn Fly PCT Mortality (%): 80%
Haematobia irritans; timepoint 24 hrs
  Contact SP Horn Fly PCT Mortality (%): 100%
Stomoxys calcitrans; 4 hrs
  Contact SP Stable Fly PCT Mortality: 60%
Stomoxys calcitrans; 24 hrs
  Contact SP Stable Fly PCT Mortality: 70%

## O=C(NC1CCC1)c1ccc(COc2cc(F)cc(Br)c2)cn1 [Compound 122]
Haematobia irritans; timepoint 4 hrs
  Contact SP Horn Fly PCT Mortality (%): 0%
Haematobia irritans; timepoint 24 hrs
  Contact SP Horn Fly PCT Mortality (%): 0%
[1]; timepoint 4 hrs
  Contact SP Rhicicep PCT Mortality (%): 0%
[1]; timepoint 24 hrs
  Contact SP Rhicicep PCT Mortality (%): 80%

## CN(C)CC(C)(C)CNC(=O)c1ccc(COc2cc(F)cc(Br)c2)cn1 [Compound 124]
Haematobia irritans; timepoint 4 hrs
  mortality at 5 µg/cm2: 100%
Haematobia irritans; timepoint 24 hrs
  mortality at 5 µg/cm2: 100%
[1]; timepoint 4 hrs
  mortality at 200 ppm: 70%
[1]; timepoint 24 hrs
  mortality at 200 ppm: 70%

## CCCCNC(=O)c1ccc(COc2cc(F)cc(Br)c2)cn1 [Compound 127]
Haematobia irritans; timepoint 4 hrs
  mortality at 5 µg/cm2: 70%
Haematobia irritans; timepoint 24 hrs
  mortality at 5 µg/cm2: 70%
[1]; timepoint 4 hrs
  mortality at 200 ppm: 90%
[1]; timepoint 24 hrs
  mortality at 200 ppm: 100%

## CC(C)CNC(=O)c1ccc(OCc2ccc(OC(F)(F)F)cc2)cn1 [Compound 136]
[2]
  LDA SP H. cont. PCT Mot M: 89.2655%

## O=C(NCC1CC1)c1ccc(COc2cccc(-c3cccc(F)c3)c2)cn1 [Compound 176]
[1]; timepoint 4 hrs
  Contact SP Rhicicep PCT Mortality (%): 90%
[1]; timepoint 24 hrs
  Contact SP Rhicicep PCT Mortality (%): 100%
Ctenocephalides felis
  Assay: Minilnge Organism: C. felis Test Parameter: PCT Mortal: 70%

## CCCNC(=O)c1ccc(COc2cccc(-c3cccc(F)c3)c2)cn1 [Compound 177]
[1]; timepoint 4 hrs
  Contact SP Rhicicep PCT Mortality (%): 80%
[1]; timepoint 24 hrs
  Contact SP Rhicicep PCT Mortality (%): 90%
Ctenocephalides felis
  Assay: Minilnge Organism: C. felis Test Parameter: PCT Mortal: 40%

## C=C(C)CNC(=O)c1ccc(COc2cccc(-c3cccc(F)c3)c2)cn1 [Compound 179]
[1]; timepoint 4 hrs
  Contact SP Rhicicep PCT Mortality (%): 100%
[1]; timepoint 24 hrs
  Contact SP Rhicicep PCT Mortality (%): 100%
Ctenocephalides felis
  Assay: Minilnge Organism: C. felis Test Parameter: PCT Mortal: 70%

## COC(CNC(=O)c1ccc(COc2cccc(-c3ccccc3)c2)cn1)OC [Compound 185]
Ctenocephalides felis
  Assay: Minilnge Organism: C. felis Test Parameter: PCT Mortal: 90%

## C=C(C)CNC(=O)c1ccc(COc2cccc(-c3ccccc3)c2)cn1 [Compound 197]
Ctenocephalides felis
  Assay: Minilnge Organism: C. felis Test Parameter: PCT Mortal: 90%

## CC(C)CNC(=O)c1ccc(COc2cccc(-c3ccccc3)c2)cn1 [Compound 198]
[1]; timepoint 4 hrs
  Contact SP Rhicicep PCT Mortality (%): 100%
[1]; timepoint 24 hrs
  Contact SP Rhicicep PCT Mortality (%): 100%
Ctenocephalides felis
  Assay: Minilnge Organism: C. felis Test Parameter: PCT Mortal: 90%

## CC(C)CNC(=O)c1ccc(CCOc2ccc(C(F)(F)F)cc2)cn1 [Compound 206]
[1]; timepoint 4 hrs
  mortality at 200 ppm: 100%
[1]; timepoint 24 hrs
  mortality at 200 ppm: 100%
[2]
  LDA SP H. cont. PCT Mot M: 100%

## O=C(NCC1CC1)c1ccc(CCOc2ccc(C(F)(F)F)cc2)cn1 [Compound 207]
Haematobia irritans; timepoint 4 hrs
  Contact SP Horn Fly PCT Mortality (%): 80%
Haematobia irritans; timepoint 24 hrs
  Contact SP Horn Fly PCT Mortality (%): 80%
[2]
  LDA SP H. cont. PCT Mot M: 100%

## CCC(C)CNC(=O)c1ccc(CCOc2ccc(C(F)(F)F)cc2)cn1 (stereo not shown) [Compound 219]
[1]; timepoint 4 hrs
  mortality at 200 ppm: 80%
[1]; timepoint 24 hrs
  mortality at 200 ppm: 90%
[2]
  LDA SP H. cont. PCT Mot M: 90%

## CC(C)CNC(=O)c1ccc(CCOc2ccc(Cl)c(OC(F)(F)F)c2)cn1 [Compound 223]
[1]; timepoint 4 hrs
  Contact SP Rhicicep PCT Mortality (%): 0%
[1]; timepoint 24 hrs
  Contact SP Rhicicep PCT Mortality (%): 0%
[2]
  LDA SP H. cont. PCT Mot M: 91%

## CC(C)CNC(=O)c1ccc(CCOc2ccc(F)c(F)c2)cn1 [Compound 224]
[2]
  LDA SP H. cont. PCT Mot M: 98%

## O=C(NCC1CC1)c1ccc(CCOc2cccc(OC(F)(F)F)c2)cn1 [Compound 243]
[1]; timepoint 4 hrs
  mortality at 200 ppm: 100%
[1]; timepoint 24 hrs
  mortality at 200 ppm: 100%
Ctenocephalides felis
  mortality at 200 ppm: 80%
